Biological target: ATP-dependent translocase ABCB1 (Rattus norvegicus, UniProt P43245)
Assay: TP_TRANSPORTER: intracellular accumulation in mdr1b-expressing NIH3T3 cells
Type: functional, cell-based
Details: mouse

Chain of ATP-dependent translocase ABCB1 (P43245 whole entry): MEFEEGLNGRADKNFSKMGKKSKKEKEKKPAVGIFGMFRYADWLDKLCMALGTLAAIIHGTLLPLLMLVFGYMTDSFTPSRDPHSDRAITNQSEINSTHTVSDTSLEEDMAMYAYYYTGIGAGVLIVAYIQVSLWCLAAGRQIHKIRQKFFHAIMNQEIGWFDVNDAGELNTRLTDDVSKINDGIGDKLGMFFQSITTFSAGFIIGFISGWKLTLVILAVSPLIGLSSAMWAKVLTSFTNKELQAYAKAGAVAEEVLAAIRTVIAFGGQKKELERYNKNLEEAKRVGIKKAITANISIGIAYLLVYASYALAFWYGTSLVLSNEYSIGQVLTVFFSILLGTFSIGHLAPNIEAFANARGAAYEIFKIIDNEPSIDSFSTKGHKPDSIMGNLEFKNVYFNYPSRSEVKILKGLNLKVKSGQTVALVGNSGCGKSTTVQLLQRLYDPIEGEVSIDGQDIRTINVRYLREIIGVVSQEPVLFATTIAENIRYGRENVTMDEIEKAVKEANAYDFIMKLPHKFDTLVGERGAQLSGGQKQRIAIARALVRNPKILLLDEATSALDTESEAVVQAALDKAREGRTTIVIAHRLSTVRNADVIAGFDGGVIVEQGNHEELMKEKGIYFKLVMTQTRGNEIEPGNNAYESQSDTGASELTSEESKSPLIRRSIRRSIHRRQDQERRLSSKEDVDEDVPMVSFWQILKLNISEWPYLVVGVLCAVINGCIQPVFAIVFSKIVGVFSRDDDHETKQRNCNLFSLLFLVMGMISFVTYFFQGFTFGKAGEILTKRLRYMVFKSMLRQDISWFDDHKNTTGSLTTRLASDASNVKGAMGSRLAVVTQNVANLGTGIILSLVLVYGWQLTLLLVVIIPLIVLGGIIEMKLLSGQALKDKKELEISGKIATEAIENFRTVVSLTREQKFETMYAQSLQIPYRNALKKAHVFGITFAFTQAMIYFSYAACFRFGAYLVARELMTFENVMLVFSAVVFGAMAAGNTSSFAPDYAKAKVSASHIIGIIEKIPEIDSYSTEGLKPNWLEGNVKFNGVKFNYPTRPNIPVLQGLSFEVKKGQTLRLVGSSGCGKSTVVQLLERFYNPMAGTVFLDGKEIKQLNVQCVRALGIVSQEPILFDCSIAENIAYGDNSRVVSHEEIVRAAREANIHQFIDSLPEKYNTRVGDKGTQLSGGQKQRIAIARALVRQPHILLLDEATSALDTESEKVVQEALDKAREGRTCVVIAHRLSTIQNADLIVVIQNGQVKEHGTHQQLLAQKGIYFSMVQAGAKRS

- Activity: substrate [+]
Compound: COC(=O)c1ccccc1-c1c2ccc(=N)cc-2oc2cc(N)ccc12.Cl [RHODAMINE123]

Source: ChEMBL document CHEMBL2074111, “Functional characterization of the rat mdr1b encoded P-glycoprotein: not all inducing agents are substrates” (Carcinogenesis, 1997)
